“Also recorded” adds a separate entry of the source.
How the values were obtained:
[1] = system: GFP+ B16-OVA cells phagocytosed by BMDMs; assay: Phagocytosis assay, BMDMs with GFP+ B16-OVA cells; type: cell-based, mouse; conditions: 50 μM, flow cytometry
Method: Bone marrow-derived macrophage cells (BMDMs) from C57BL/6N mice were isolated and induced with 20 ng/mL of mouse granulocyte–macrophage colony-stimulating factor (GM-CSF, 315–03, Peprotech) for 7 days, with regular medium changes and cytokine replenishment during cell induction. The cells were then harvested for subsequent experiments. Subsequently, the cells were treated with SMC18 at a concentration of 50 μΜ. The anti-CD47 antibody (clone miap301, 16–0471-81, Invitrogen) was employed as a positive control with 20 µg/mL. Phagocytosis was measured by the co-culture of macrophages with green fluorescent protein (GFP^+) tumor cells (GFP^+ MC38 and GFP^+ B16-OVA cells) at a ratio of 1:4 in serum-free medium at 37 °C for 4 h. The cells were harvested and identified by flow cytometry using anti-F4/80 antibody (BM8, 17–4801-82, eBioscience). The phagocytosis rate was calculated as the percentage F4/80^+GFP^+ cells relative to the total number of total F4/80^+ cells. For confocal microscopy detection, BMDMs were labelled with DiR dye (R-22070, Beyotime) at a final concentration of 200 μM, followed by a 30-min staining period. After washing with PBS three times, the cells were cultured with DMEM medium devoid of serum for 2 h. Subsequently, MC38-EGFP cells were seeded onto BMDMs at a density of 4 × 10^6 cells per well. […]

[2] = system: Jurkat cells co-cultured with CHO-K1-hPD-L1 cells; assay: Co-culture assay, IL-2 secretion of Jurkat cells with CHO-K1-hPD-L1 cells; type: cell-based, human; conditions: 50 μM, co-culture with CHO-K1-hPD-L1 cells 48 h
Method: Jurkat cells were stimulated with 25 ng/mL of […] (PMA, 16,561–29-8, Sigma) and 1 μg/mL of phytohemag-glutinin (PHA, L8902, Sigma) or 1 μg/mL anti-human CD3 (OKT3, BioGems and 0.5 μg/mL anti-human CD28 (CD28.2, BioGems) for 24 h. Subsequently, they were co-cultured with CHO-K1-hPD-L1 cells at a ratio of 4:1 for 48 h. SMC18 (50 μΜ) and OPBP-1 peptide (100 μM) were added as experimental group and positive control group, respectively. Four hours before the end of the co-culture, protein transport inhibitor (555,029, BD Biosciences) was added. Jurkat cells were collected and stained with anti-human CD45 antibody (HI30, eBioscience) for 30 min. The cells were then fixed and stained with anti-human IL-2-APC (MQ1-17H12, eBioscience) for another 30 min. The fluorescence intensity was analyzed by flow cytometry (BD, FACSCelesta).

hCD112R/hCD112 = hCD112R/hCD112 (Homo sapiens, UniProt Q6DKI7+Q92692); assay: Blockade of other immune checkpoint pathways, CD112R/CD112; type: cell-based; conditions: Fig. S2
human PD-1/PD-L1 = target: T1, human PD-1/PD-L1 (Homo sapiens, UniProt Q9NZQ7); assay: Cell-based blocking assay, human PD-1/PD-L1; conditions: CHO-K1-hPD-1 cells, PD-L1-Fc, flow cytometry; read-out: IC50 for blocking human PD-1/PD-L1 interaction
T1 construct: purchased Sino Biological 10,084-H02H; host or cells: CHO-K1-hPD-1 cells carry the partner (lentiviral transfection)
Method: The CHO-K1 cell line with stable expression of CD47 and PD-1 was constructed previously by our group. SMC18 was serially diluted using PBS 7.2 (containing 1% DMSO) and incubated with 100 ng of SIRPα-Fc protein (human: SIA-H5251, mouse: SIA-M5258, ACRO Biosystems) and 50 ng of PD-L1-Fc protein (human: 10,084-H02H, mouse: 50,010-M02H, Sino Biological) on ice for 30 min. The mixture was then added to the corresponding CHO-K1-CD47 or CHO-K1-PD-1 cells and further incubated on ice for 30 min. Afterward, PE-conjugated anti-human IgG (Fc) antibody (A18272, eBioscience) was added. The mean fluorescence intensity (MFI) of the cells was detected using flow cytometry (BD FACSCalibur) and the blocking efficiency was calculated.

PD-1 = assay: Tyrosine phosphorylation assay of PD-1, Jurkat/CHO-K1-hPD-L1 co-culture; type: cell-based, human; conditions: 50 μM, stimulated Jurkat with CHO-K1-hPD-L1 cells, 30 min, Western blotting
Method: Jurkat cells were stimulated with of PMA (25 ng/mL) and PHA (1 μg/mL) for 24 h. Stimulated Jurkat cells (2 × 10^6 cells/well) were co-cultured with CHO-K1-PD-L1 cells (1 × 10^7 cells/well). The co-cultures were treated with PBS, SMC18 (50 μM), or anti-human PD-1 (a17188b, Biolegend) and incubated at 37℃ for 30 min. After PBS washing, the cells were collected by centrifugation and lysed. Finally, cell lysates were collected for immunoprecipitation and Western blotting.
In brief, the protein samples were separated by SDS-PAGE using a 4% stacking gel and an 8 ~ 10% main gel and transferred to a polyvinylidene difluoride (PVDF) membrane. The membrane was blocked with 5% milk at room temperature for 1–2 h and then incubated with anti-SIRPα (dilution 1:1000, AB8120, Abcam), anti-PD-1 (dilution 1:200, ab52587, Abcam) or anti-Phosphotyrosine (dilution 1:1000, 05–321, Millipore) dissolved in primary antibody dilution buffer overnight at 4 °C. Then the membrane was washed and incubated with appropriate HRP-coupled goat anti-rabbit IgG (D110058, Sangon Biotech) and HRP-coupled goat anti-mouse IgG (D110087, Sangon Biotech) for 1–2 h at room temperature. Finally, the membranes were exposed using an enhanced chemiluminescence (ECL) detection kit (P1030, Applygen). Results were analyzed by ImageJ software (NIH, Bethesda, MD, United States).

Chain of hCD112R/hCD112 (Q6DKI7 whole entry): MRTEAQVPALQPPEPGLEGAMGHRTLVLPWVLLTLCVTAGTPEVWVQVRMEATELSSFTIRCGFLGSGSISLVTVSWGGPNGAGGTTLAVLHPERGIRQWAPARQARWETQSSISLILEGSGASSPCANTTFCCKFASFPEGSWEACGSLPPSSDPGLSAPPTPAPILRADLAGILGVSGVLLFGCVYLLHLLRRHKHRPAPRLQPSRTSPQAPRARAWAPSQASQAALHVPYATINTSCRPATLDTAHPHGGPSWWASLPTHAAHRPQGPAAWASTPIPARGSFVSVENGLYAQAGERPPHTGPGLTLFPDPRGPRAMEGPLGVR
Chain of hCD112R/hCD112 (Q92692 32-538): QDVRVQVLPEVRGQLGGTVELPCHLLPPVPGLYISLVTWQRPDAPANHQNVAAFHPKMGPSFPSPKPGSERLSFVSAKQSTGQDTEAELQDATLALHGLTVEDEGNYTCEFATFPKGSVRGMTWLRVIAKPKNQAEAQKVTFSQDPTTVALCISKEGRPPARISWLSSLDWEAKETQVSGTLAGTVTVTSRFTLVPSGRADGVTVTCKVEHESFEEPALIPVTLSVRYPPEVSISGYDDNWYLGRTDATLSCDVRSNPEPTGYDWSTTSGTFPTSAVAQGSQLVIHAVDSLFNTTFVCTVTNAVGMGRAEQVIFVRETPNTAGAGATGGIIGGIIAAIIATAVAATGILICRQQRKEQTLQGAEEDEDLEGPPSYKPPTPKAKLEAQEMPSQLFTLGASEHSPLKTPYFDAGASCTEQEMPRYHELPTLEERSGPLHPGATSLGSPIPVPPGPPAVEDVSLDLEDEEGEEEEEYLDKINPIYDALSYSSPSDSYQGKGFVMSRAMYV
T1 sequence (Q9NZQ7 19-239 limits assumed): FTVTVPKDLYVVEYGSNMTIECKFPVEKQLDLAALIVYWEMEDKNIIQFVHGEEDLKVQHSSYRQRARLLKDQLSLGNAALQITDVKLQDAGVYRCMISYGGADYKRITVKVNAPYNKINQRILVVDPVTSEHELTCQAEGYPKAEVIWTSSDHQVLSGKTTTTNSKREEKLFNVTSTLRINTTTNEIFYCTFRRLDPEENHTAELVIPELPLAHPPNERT

Q: With `Cc1cc(C)cc(NS(=O)(=O)c2ccc3[nH]cc(C(=O)NCCc4ccccc4)c(=O)c3c2)c1` [SMC18] as the compound, how does the “phagocytosis of B16-OVA cells by BMDMs” value [1] read?
A: enhances; also recorded: significantly increased

Q: What about the “ability of Jurkat cells to secrete IL-2” value [2] of the same compound?
A: effectively restored

Q: What about the “inhibitory effect on hCD112R/hCD112 pathway” value (hCD112R/hCD112) of the same compound?
A: no blocking effect; also recorded: did not impede

Q: And the IC50 (human PD-1/PD-L1)?
A: 19.7 ± 7 µM

Q: And the “levels of phosphorylated PD-1” value (PD-1)?
A: decreased

— paper PMC10926604, “Discovery of a novel small molecule as CD47/SIRPα and PD-1/PD-L1 dual inhibitor for cancer immunotherapy” (Cell Communication and Signaling : CCS, 2024)
